Measured values taken from patent US20260248832A1, “COMPOSITION COMPRISING CYTIDINE ANALOGS AND USES AND METHODS THEREOF” (UNIVERSITÄT HEIDELBERG, priority 2022, published 2026).
Values after ≈ are worked out from the molar mass of the structure shown.

What was measured:
Type in all cases: physicochemical
[1] = Solubility of decitabine in different non-aqueous media; details: DMSO
Protocol: Due to the unsuitability of aqueous media, different non-aqueous media were tested with regard to the solubility of decitabine in the non-aqueous media. As decitabine is a nucleoside, several polar, water-free solvents, that would be well suited for further formulation experiments, were selected to determine the solubility of decitabine. […] Therefore, the DMSO stock was chosen as the next candidate for stability and formulation testing.

[2] = Stability of decitabine in aqueous media (HPLC); details: DMSO stock mixed 1:2 with 20 mM ammonium acetate pH 6.8; room temperature (about 25° C.); up to 14 days
Protocol: (§1) Chem Res Toxicol 2009; 22 (6): 1194-204.
(§2) • 1. […] Immediate Injection • 3. […] Chem Res Toxicol 2009; 22 (6): 1194-204.
To test the stability of β-decitabine in an aqueous medium, two stock solutions of β-decitabine in DMSO were prepared and mixed 1:2 with the HPLC mobile phase (20 mM ammonium acetate pH 6.8). The samples were stored at room temperature (about 25° C.) and their content of β-decitabine, which is considered to represent the active anomer of decitabine, was measured for up to 14 days.

[3] = Long-term stability of decitabine in DMSO (HPLC); details: 3 mM stock in DMSO; room temperature and 2-8° C.; almost three months
Protocol: as §1, §2
A 3 mM stock solution of decitabine in DMSO was prepared and one aliquot each was stored at room temperature and at 2-8° C. Its β-decitabine concentration was determined by HPLC for almost three months.

solubility ([1]; organic solvent or mixture): ~46 mg/mL (≈ 202 mM) | solubility of decitabine for relevant dosage strengths ([1]; four tested solvents: glycerol, PEG 300, absolute ethanol): only DMSO showed sufficient solubility | stability of β-decitabine in aqueous medium [2]: observed instability | change in β-decitabine concentration in DMSO [3]: almost no change
SMILES: Nc1ncn([C@H]2C[C@H](O)[C@@H](CO)O2)c(=O)n1 [decitabine, 5-aza-2′-deoxycytidine]
